≈ marks a conversion by molar mass, not a printed value. Like-named read-outs stand apart in the source and are kept apart here. Non-standard residues stand in square brackets, D forms with d. Residues, ends and D or L forms follow the SMILES beside them. No end group written: not given here.

Series [1] relates to Escherichia coli (ATCC 25922). As to the kind of experiment: microbe, parasite or virus in culture. The class given is cell-based. The method, then:
(§1) The MIC was determined by broth microdilution. […] Three technical replicates were performed for each condition.

Series [2] has as its system E. coli (ATCC 25922) wild type. Particulars: cultured with ½ MIC of the agent, diluted daily, for 24 days; value at day 24; three technical replicates. The method, then:
An E. coli (ATCC® 25922™) culture was sequentially diluted every day in the presence of the different antibacterial compounds: D-Ctl, ampicillin or cefotaxime at ½ MIC during 24 days. The changes in the MICs values were determined as previously described by broth microdilution at the indicated times. The experiment was performed with three technical replicates.

In series [3] the test system is Escherichia coli (MDR) (K-12). Particulars: for FIC: MICcombination/MICalone; for FICI: sum of both FICs; for MIC (MIC alone): broth microdilution, Luria Bertani broth, 24 h, OD600, lowest concentration inhibiting 100% of inoculum, modified Gompertz function, biological replicates.
Protocol: (§5) According to the European Committee on Antimicrobial Susceptibility Testing[20], the effect of a combination between two antibacterial compounds can be evaluated by their FICI (Fractional Inhibitory Concentration Index). The FICI consists of the sum of the FICs of both antibacterial agents: FIC index = FICantimicrobial + FICD-Ctl. For each compound, the FIC was determined as the ratio between the MIC of the compound in combination (MICcombination) and the MIC of the compound acting alone (MICalone). On the basis of their FIC index, each combination was categorized as synergistic (≤0.5), additive (>0.5 to 1), indifferent (>1 to <4) or antagonistic (≥4).
(§6) Microorganisms were cultured according to the manufacturer’s or the owner’s instructions in their respective media: Luria Bertani broth (Sigma) was used for E. coli strains, Mueller Hinton broth (Difco) for S. aureus strains and Anaerobe Basal broth (Oxoid) for F. nucleatum, P. intermedia and P. micra.
(§7) The MIC was determined by broth microdilution. An overnight culture of each bacterial strain was diluted (approximately to OD600 = 0,001) and microorganisms were plated in 96-well plates in the presence of different concentrations of antimicrobials, D-Ctl or L-Ctl alone or in combination. Three technical replicates were performed for each condition. After 24 hours of incubation, the microorganism growth was assessed by optical density OD600 using a Multiskan™ EX microplate spectrophotometer (Thermo Fisher Scientific). […] Each experiment was performed with at least three biological replicates.
Series [4] has as its system Escherichia coli (MDR) (K-12). The series can be described thus: microbe, parasite or virus in culture. Conditions: 24 h, read-out: MIC (MIC alone).
Protocol: as §5, §6, §7
The subject of series [5] is Staphylococcus aureus (MSSA) (ATCC 25923). As to the kind of experiment: microbe, parasite or virus in culture. Particulars: for FIC: MICcombination/MICalone; for FICI: sum of both FICs. The method, then: as §1
Series [6] deals with secreted proteases from E. coli MDR. Particulars: 400 μL filtered culture supernatant of E. coli MDR, 37 °C, 24 hours; RP-HPLC C18, 214 nm, versus peptide in water. The protocol:
(§2) Bacterial supernatant was prepared as follows: a single colony of each strain was resuspended in 5 mL of culture medium as indicated above and incubated at 37 °C overnight. The culture was then centrifuged at 10000 g for 1 min and the supernatant was filtered using a […] MillexH-GV (Millipore, Carrigtwohill, Ireland). An aliquot of each supernatant was incubated at 37 °C for 48 hours. Absence of growth was interpreted as lack of viable microorganism. 400 μL of supernatant was then incubated with or without each peptide of interest at 37 °C for 24 hours. As a control, each peptide was incubated in water at 37 °C for 24 hours. Samples were then separated using a Dionex HPLC system (Ultimate 3000; Sunnyvale, CA USA) on a Nucleosil reverse-phase 300–5C18-column ([…]; particle size: […]; porosity, 300 Å) (Macherey Nagel, Hoerdt, France). Absorbance was monitored at 214 nm and the solvent system consisted of 0.1% (v/v) TFA in water (solvent A) and 0.09% (v/v) TFA in 70% (v/v) acetonitrile-water (solvent B). Elution was performed at a flow rate of […] with a gradient of solvent B as indicated on the chromatograms.

Series [7] relates to secreted proteases from E. coli wild type. Conditions: 400 μL filtered culture supernatant of E. coli wild type, 37 °C, 24 hours; RP-HPLC C18, 214 nm, versus peptide in water. The protocol: as §2
Series [8] deals with secreted proteases from F. nucleatum. Conditions: 400 μL filtered culture supernatant of F. nucleatum, 37 °C, 24 hours; RP-HPLC C18, 214 nm, versus peptide in water. The protocol:
as §2

Series [9] relates to secreted proteases from P. intermedia. Particulars: 400 μL filtered culture supernatant of P. intermedia, 37 °C, 24 hours; RP-HPLC C18, 214 nm, versus peptide in water. The method, then:
as §2

Series [10] deals with secreted proteases from P. micra. Conditions: 400 μL filtered culture supernatant of P. micra, 37 °C, 24 hours; RP-HPLC C18, 214 nm, versus peptide in water. The method, then: as §2
Series [11] deals with secreted proteases from S. aureus methicillin resistant (MRSA). Conditions: 400 μL filtered culture supernatant of MRSA, 37 °C, 24 hours; RP-HPLC C18, 214 nm, versus peptide in water. The protocol:
as §2

Series [12] concerns secreted proteases from S. aureus methicillin sensitive (MSSA). Particulars: 400 μL filtered culture supernatant of MSSA, 37 °C, 24 hours; RP-HPLC C18, 214 nm, versus peptide in water. The method, then: as §2
The test system of series [13] is Fusobacterium nucleatum (ATCC 49256). Particulars: for MIC (MIC alone): ATCC 49256, 24 h.
Protocol: as §5, §6, §7
The test system of series [14] is Prevotella intermedia (ATCC 49046). Conditions: for MIC (MIC alone): ATCC 49046, 24 h.
Protocol: as §5, §6, §7
Series [15] concerns Parvimonas micra (ATCC 33270). Particulars: for MIC (MIC alone): broth microdilution, Anaerobe Basal broth, 24 h, OD600, 100% inhibition, modified Gompertz function, biological replicates. In general terms: Dilution methods test growth across graded concentrations, often in twofold steps.
Protocol: as §5, §6, §7
Series [16] deals with Staphylococcus aureus (MRSA) (S1). Particulars: for FIC: MICcombination/MICalone; for FICI: sum of both FICs.
Protocol: as §5, §6, §7
Series [17] has the same test system. As to the kind of experiment: microbe, parasite or virus in culture. Particulars: 24 h, read-out: MIC (MIC alone).
Protocol: as §5, §6, §7
Series [18] has as its system epithelial cells, smooth muscle cells and T cells. Conditions: cited from earlier work. From the text:
In the last decade, there have been a few HDPs entering clinical trials, specifically cathelicidins and defensins natural peptides or derivatives such as LL-37, MBI-226 (studies NCT00211523, NCT00211497 and NCT00027248 for the prevention of central venous catheter-related bloodstream infections and acne) and PMX-30063 (study NCT01211470 for acute bacterial skin and skin-structure infection). However, the clinical and commercial development of these peptide-based drugs has some limitations such as high cost of production, susceptibility to proteases and cytotoxicity. For example, the human cath ...

Another series deals with V8. Conditions: cited from earlier work. The source says:
(§3) To this aim, different bacterial ...

Another series relates to aureolysin. Conditions: cited from earlier work.
Source text: as §3

For series [19], the system named is secreted proteases from S. aureus methicillin resistant (MRSA). Conditions: supernatant of MRSA, previous study; cited from earlier work. The source says:
(§4) Linear L-peptides with α-helical structures are usually susceptible to proteolysis. […] The specific spatial configurations of the cleavage sites for these enzymes are not present in D-peptides although these peptides might be cleaved by non-specific hydrolysis during enzymatic digestion. Subsequently, we assessed the sensitivity of D-Ctl to secreted bacterial proteases by HPLC. To this aim, different bacterial ...

The test system of series [20] is secreted proteases from S. aureus methicillin sensitive (MSSA). Particulars: supernatant of MSSA, previous study; cited from earlier work.
Source text: as §4

Setting [21] is: broth microdilution, Mueller Hinton broth, 24 h, OD600, 100% inhibition, modified Gompertz function, biological replicates.
[22] abbreviates: combination D-Ctl + methicillin.
Setting [23] is: combination D-Ctl + amoxicillin, sum of both FICs.

In the case of `CC1(C)S[C@@H]2[C@H](NC(=O)[C@H](N)c3ccccc3)C(=O)N2[C@H]1C(=O)O` [Ampicillin], the MIC in series [1] (Escherichia coli, ATCC25922, broth microdilution, Luria Bertani broth, 24 h, OD600, lowest concentration inhibiting 100% of inoculum, modified Gompertz function, biological replicates, read-out: MIC) was 7 µg/mL (≈ 20 µM). Moreover, in series [2], the “fold change in MIC under selective pressure” value came out at 3 x MIC.
As for `CO/N=C(\C(=O)N[C@@H]1C(=O)N2C(C(=O)O)=C(COC(C)=O)CS[C@H]12)c1csc(N)n1` [Cefotaxime], the “fold change in MIC under selective pressure” value in series [2] was determined as 3 x MIC. In series [3] (combination D-Ctl + cefotaxime), the FIC came to 0.5 and the FICI is 1.0. Also, the Effect entry in series [3] (combination D-Ctl + cefotaxime, category by FIC index) is “Additive”. For the same compound, the MIC in [4] worked out at 0.1 µg/mL (≈ 0.22 µM).
Compound `CSCC[C@@H](NC(=O)[C@@H](CO)NC(=O)[C@H](N)CCCNC(=N)N)C(=O)N[C@H](CCCNC(=N)N)C(=O)N[C@H](CC(C)C)C(=O)N[C@H](CO)C(=O)N[C@H](Cc1ccccc1)C(=O)N[C@H](CCCNC(=N)N)C(=O)N[C@H](C)C(=O)N[C@H](CCCNC(=N)N)C(=O)NCC(=O)N[C@H](Cc1ccc(O)cc1)C(=O)NCC(=O)N[C@H](Cc1ccccc1)C(=O)N[C@H](CCCNC(=N)N)C(=O)O` [D-Ctl, D-Cateslytin] (H-[dR][dS][dM][dR][dL][dS][dF][dR][dA][dR]G[dY]G[dF][dR]-OH) gave an MIC in series [1] (ATCC 25922, 24 h) of 8.0 µg/mL (≈ 4.3 µM). Moreover, the “MIC (MIC alone)” value was 24 µg/mL (≈ 12.9 µM) in [5] (setting [21]); 8.4 µg/mL (≈ 4.52 µM) in series [3]; 22 µg/mL (≈ 11.8 µM) in series [13]; 10 µg/mL (≈ 5.38 µM) in series [14]; 23 µg/mL (≈ 12.4 µM) in series [15]; 18 µg/mL (≈ 9.68 µM) in [16] (setting [21]). For the same compound, the FIC is 0.5 in series [5] (setting [22]); 0.5 in series [3] (combination D-Ctl + cefotaxime); 0.25 in series [15] (combination D-Ctl + amoxicillin, MICcombination/MICalone); 1 in series [16] (combination D-Ctl + vancomycin). Moreover, the FICI in series [5] (setting [22]) is recorded as 0.75; in [3] (combination D-Ctl + cefotaxime), 1.0; in [13] (setting [23]), 1.0; in series [14] (setting [23]), 0.5; in series [15] (setting [23]), 0.5; in series [16] (combination D-Ctl + vancomycin) it was 2. The “stability in bacterial supernatant” value in series [6], in [7], in series [8], in [9], in series [10] and in series [11] was “not degraded” in each case. Besides, in series [12], the “stability in bacterial supernatant” value is reported as “not degraded”.
The compound `NC[C@H]1O[C@H](O[C@H]2[C@H](O)[C@@H](O[C@H]3O[C@H](CO)[C@@H](O)[C@H](N)[C@H]3O)[C@H](N)C[C@@H]2N)[C@H](O)[C@@H](O)[C@@H]1O` [Kanamycin] displayed an MIC in series [1] (broth microdilution, Luria Bertani broth, 24 h, OD600, lowest concentration inhibiting 100% of inoculum, modified Gompertz function, biological replicates) of 21.6 µg/mL (≈ 44.6 µM).
For `COc1cccc(OC)c1C(=O)N[C@@H]1C(=O)N2[C@@H]1SC(C)(C)[C@@H]2C(=O)O` [Methicillin], in series [5] (Staphylococcus aureus, 24 h, read-out: MIC (MIC alone)), the MIC came out at 1.2 µg/mL (≈ 3.15 µM). In addition, in [5] (setting [22]), the FIC is given as 0.25 and the FICI amounted to 0.75. Further, the MIC combination in series [5] (combination D-Ctl + methicillin, broth microdilution, at least in duplicate) is listed as 0.3 µg/mL. Besides, the Effect result in series [5] (combination D-Ctl + methicillin, category by FIC index) was “Additive”.
For the compound `CN[C@H](CC(C)C)C(=O)N[C@H]1C(=O)N[C@@H](CC(N)=O)C(=O)N[C@H]2C(=O)N[C@H]3C(=O)N[C@H](C(=O)N[C@H](C(=O)O)c4cc(O)cc(O)c4-c4cc3ccc4O)[C@H](O)c3ccc(c(Cl)c3)Oc3cc2cc(c3O[C@@H]2O[C@H](CO)[C@@H](O)[C@H](O)[C@H]2O[C@H]2C[C@](C)(N)[C@H](O)[C@H](C)O2)Oc2ccc(cc2Cl)[C@H]1O` [Vancomycin], in [16] (combination D-Ctl + vancomycin), the FIC was found to be 1 and the FICI amounted to 2. Also, the Effect result in [16] (combination D-Ctl + vancomycin, category by FIC index) is listed as “Indifferent”. Besides, in series [17], the MIC was 0.8 µg/mL (≈ 0.552 µM).
In the case of “LL-37: human cathelicidin host defence peptide”, the “level at which apoptosis is enhanced” value in series [18] is on record as “above 10 µM”. In addition, the “proteolysis by secreted S. aureus protease” value with V8 and in the series with aureolysin was “cleavage” each time.
RSMRLSFRARGYGFR [L-Ctl, L-Cateslytin] displayed an MIC in series [1] (ATCC 25922, 24 h) of 75 µg/mL. Moreover, the “stability in bacterial supernatant” value in series [6] is “degraded”; in series [7], “degraded”; in series [8] it was “resistant to the degradation”; in [9] it was “resistant to the degradation”; in series [10], “resistant to the degradation”; in series [19], “stable”. Besides, the “stability in bacterial supernatant” value in [20] is given as “stable”. The “MIC (MIC alone)” value is recorded as 150 µg/mL in series [3], 125 µg/mL in [13], 149 µg/mL in series [14] and 120 µg/mL in [15].
